Reference: US20240091390A1, “IMPROVED CHOLECYSTOKININ-2 RECEPTOR (CCK2R) TARGETING FOR DIAGNOSIS AND THERAPY” (Medizinische Universität Innsbruck, priority 2021, published 2024)
Starred links: 1 amine or outer side, 2 acyl side, 3 side chain; linkers in the order of their positions; H or OH if unused. Non-standard residues stand in square brackets, D forms with d. Residues, ends and D or L forms follow the SMILES beside them. *: point of attachment. DOTA = O=C(O)CN1CCN(CC(=O)O)CCN(CC(=O)*)CCN(CC(=O)O)CC1; d(γGlu) = O=C(O)[C@@H](CCC(=O)[*:2])N[*:1]; 1Nal = N[C@@H](Cc1cccc2ccccc12)C(=O)O; NMeNle = CCCC[C@H](NC)C(=O)O; GABA = NCCCC(=O)O; βAla = NCCC(=O)O

Key:
[1] = target: T1, CCK2R (Homo sapiens, UniProt P32239); assay: Competition binding assay against [^125I][3-iodo-Tyr^12,Leu^15]gastrin-I on A431-CCK2R cells; details: displacement of [^125I][3-iodo-Tyr^12,Leu^15]gastrin-I, 1 h at RT
T1 construct: expressed in transfected cells; host or cells: A431 cells (A431-CCK2R), provided by Dr. Luigi Aloj
T1 sequence (P32239 1-447): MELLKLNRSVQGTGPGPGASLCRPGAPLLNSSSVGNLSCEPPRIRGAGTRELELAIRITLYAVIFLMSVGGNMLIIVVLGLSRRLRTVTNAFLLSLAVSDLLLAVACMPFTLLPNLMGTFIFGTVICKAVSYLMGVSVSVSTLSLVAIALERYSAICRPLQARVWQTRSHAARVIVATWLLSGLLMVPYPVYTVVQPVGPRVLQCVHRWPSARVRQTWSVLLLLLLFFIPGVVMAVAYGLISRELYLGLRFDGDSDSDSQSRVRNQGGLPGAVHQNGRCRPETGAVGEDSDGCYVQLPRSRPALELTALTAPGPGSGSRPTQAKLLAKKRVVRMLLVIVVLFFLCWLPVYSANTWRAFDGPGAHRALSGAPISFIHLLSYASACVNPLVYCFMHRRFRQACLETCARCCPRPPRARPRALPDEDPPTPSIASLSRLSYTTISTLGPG
Method: Affinity for CCK2R was studied in A431-CCK2R cells. […] Radioiodination of gastrin-I was carried out using the chloramine-T method. Non-carrier-added [^125I][3-iodo-Tyr^12,Leu^15]gastrin-I was obtained by HPLC purification and stored in aliquots at −20° C. Binding assays were carried out in 96-well filter plates (MultiScreenHTS-FB, Merck Group, Darmstadt, Germany) pretreated with 10 mM TRIS/139 mM NaCl pH 7.4 (2×250 μL). For the assay a number of 400,000 A431-CCK2R cells per well was prepared in 35 mM HEPES buffer pH 7.4 containing 10 mM MgCl2, 14 μM bacitracin and 0.5% BSA (a hypotonic solution disturbing the integrity of the cell membranes). The cells were incubated in triplicates with increasing concentrations of the peptidomimetics (0.0003 to 1,000 nM) and [^125I-Tyr^12]gastrin-I (˜25,000 cpm) for 1 h at RT. Incubation was interrupted by filtration of the medium and rapid rinsing with ice-cold 10 mM TRIS/139 mM NaCl pH 7.4 (2×200 μl) and the filters were counted in the gamma-counter. Half maximal inhibitory concentration (IC50) values were calculated following nonlinear regression with Origin software (Microcal Origin 6.1, Northampton, MA) and a representative assay was chosen for comparison.

[2] = Stability against enzymatic degradation in vivo (radio-HPLC of blood); design: species or system BALB/c mice; details: ^177Lu-labelled; for percentage of intact radioligand present in the blood: 30 min p.i.
Method: To further characterise the stability of the radiolabelled peptidomimetic in vivo, metabolic studies were carried out in 5-6-week-old female BALB/c mice (Charles River, Sulzfeld, Germany) injected intravenously with ^177Lu-labelled and ^68Ga-labelled peptidomimetics. All animal experiments were conducted in compliance with the Austrian animal protection laws and with the approval of the Austrian Ministry of Science. To allow monitoring of the metabolites by radio-HPLC, mice were injected with a higher amount of radioactivity (20-40 MBq ^177Lu, corresponding to ˜1 nmol total peptide, or ˜10 MBq ^68Ga, corresponding to ˜1 nmol total peptide) through a lateral tail vein and euthanized by cervical dislocation at selected time points p.i. […] A sample of blood was collected and the degradation was assessed by radio-HPLC. For this purpose blood samples were precipitated with ACN, centrifuged at 2000 g for 2 min and diluted with water (1:1/v:v) prior to HPLC analysis using a Dionex chromatography system including radiodetection and UV detection equipped with a Phenomenex Jupiter Proteo C12 column (90 Å, 4 μm, 250×4.6 mm) column using a water/acetonitrile/0.1% TFA gradient system.

[3] = 10 min after intravenous injection; cited from earlier work
[4] = in vivo; details: female, athymic BALB/c nude, mouse, iv, total radioactivity
Method: (§1) Biodistribution studies evaluating the tumour uptake of the radiolabelled inventive CCK2R targeting peptide analogues were performed in xenografted nude mice.
(§2) For the induction of tumour xenografts, A431-CCK2R and A431-mock cells were injected subcutaneously in athymic BALB/c nude mice (Charles River or Janvier Labs), respectively (2 million cells in 200 μL). When tumours had reached a size of approximately 0.2 ml, biodistribution studies were carried out. Groups of 3-5 mice were injected intravenously via a lateral tail vein with the peptidomimetics, labelled with ^177Lu (0.5-1 MBq and 0.02-0.03 nmol peptidomimetic) or ^68Ga (˜0.5 MBq and 0.02-0.03 nmol peptidomimetic). […] After selected time points post-injection (p.i.) the animals were sacrificed by cervical dislocation, tumours and other tissues (blood, lung, heart, muscle, bone, spleen, intestine, liver, kidneys, stomach, pancreas) were removed, weighed, and their radioactivity measured in a gamma counter.
(§3) Results were expressed as percentage of injected activity per gram tissue (% IA/g) and tumour to organ activity ratios were calculated from the activity measured in the dissected tissues (FIGS. 2 and 3).

[5] = in vivo; details: female, athymic BALB/c nude, mouse, iv, total radioactivity; remark: listed apart in the source
Method: (§4) For the induction of tumour xenografts, A431-CCK2R and A431-mock cells were injected subcutaneously in athymic BALB/c nude mice (Charles River or Janvier Labs), respectively (2 million cells in 200 μL). When tumours had reached a size of approximately 0.2 ml, biodistribution studies were carried out. Groups of 3-5 mice were injected intravenously via a lateral tail vein with the peptidomimetics, labelled with ^177Lu (0.5-1 MBq and 0.02-0.03 nmol peptidomimetic) or ^68Ga (˜0.5 MBq and 0.02-0.03 nmol peptidomimetic). To check for receptor specificity blocking studies using co-injection of a 1000-fold molar excess of the unlabelled peptide (˜20 nmol) together with the administration of the ^177Lu-labelled peptide were performed (FIG. 3). After selected time points post-injection (p.i.) the animals were sacrificed by cervical dislocation, tumours and other tissues (blood, lung, heart, muscle, bone, spleen, intestine, liver, kidneys, stomach, pancreas) were removed, weighed, and their radioactivity measured in a gamma counter.
(§5) The biodistribution profile of ^177Lu-DOTA-MGSA and ^177Lu-DOTA-MGS5 over up to 7 days was studied in female athymic BALB/c nude mice, inoculated with A431-CCK2R cells (left flank) at an age of 6-8 weeks (5 animals per peptidomimetic and for each time point of 1 h, 24 h, 3 d and 7 d). When tumours had reached a size of approximately 0.1-0.2 ml, biodistribution studies were carried out.

[6] = system: A431-CCK2R tumour xenografts; details: mouse, in vivo
Method: as §4, §5

[7] = in vivo; details: female, athymic BALB/c nude, mouse, iv, total radioactivity; remark: listed apart in the source
Method: as §2
In further biodistribution studies the tumour uptake and imaging properties of different ^68Ga-labelled pepitdiomimetics was evaluated. For this purpose female athymic BALB/c nude mice (Janvier Labs, Le Genest Saint Isle, France) were inoculated with A431-CCK2R cells (left flank) at an age of 8-10 weeks.

[8] = system: A431-CCK2R tumour xenografts; details: ^68Ga-labelled, previously reported (Klingler M et al., J Nucl Med 2019); cited from earlier work
[9] = system: A431-CCK2R and A431-mock tumour xenografts; details: ^177Lu-labelled, 4 h p.i., Klingler M et al., J Med Chem 2020; cited from earlier work
[10] = cited from earlier work
[11] = system: A431-CCK2R tumour xenografts; assay: Biodistribution of ^177Lu-labelled peptidomimetics up to 7 days p.i.; details: difference not significant
Method: as §4, §5

[12] = Biodistribution of ^177Lu-labelled peptidomimetics at 4 h p.i. in xenografted nude mice; details: female, athymic BALB/c nude, mouse, iv, total radioactivity
Method: as §1, §2, §3

[13] = tumour uptake in A431-CCK2R xenografts

## CCCC[C@@H](C(=O)N[C@@H](CC(=O)O)C(=O)N[C@@H](Cc1cccc2ccccc12)C(N)=O)N(C)C(=O)[C@H](Cc1c[nH]c2ccccc12)NC(=O)CCNC(=O)CC(O)CNC(=O)CC(O)CNC(=O)CN1CCN(CC(=O)O)CCN(CC(=O)O)CCN(CC(=O)O)CC1 (stereo partly drawn) [DOTA-MGSA, DOTA-Gabob-Gabob-βAla-Trp-(NMe)Nle-Asp-1Nal-NH2]
[1]
  IC50: 0.21 ± 0.01 nM

## CCCC[C@@H](C(=O)N[C@@H](CC(=O)O)C(=O)N[C@@H](Cc1cccc2ccccc12)C(N)=O)N(C)C(=O)[C@H](Cc1c[nH]c2ccccc12)NC(=O)CCNC(=O)CCCNC(=O)CCCNC(=O)CN1CCN(CC(=O)O)CCN(CC(=O)O)CCN(CC(=O)O)CC1 [DOTA-MGSB, DOTA-Gaba-Gaba-βAla-Trp-(NMe)Nle-Asp-1Nal-NH2] ({DOTA-GABA-GABA-βAla}-W[NMeNle]D[1Nal]-NH2)
[1]
  IC50: 0.31 ± 0.02 nM

## CSCC[C@H](NC(=O)[C@H](Cc1c[nH]c2ccccc12)NC(=O)CNC(=O)[C@H](Cc1ccc(O)cc1)NC(=O)[C@H](C)NC(=O)[C@@H](CCC(=O)O)NC(=O)[C@@H](CCC(=O)O)NC(=O)[C@@H](CCC(=O)O)NC(=O)[C@@H](CCC(=O)O)NC(=O)[C@@H](CCC(=O)O)NC(=O)[C@@H](CCC(=O)O)NC(=O)CN1CCN(CC(=O)O)CCN(CC(=O)O)CCN(CC(=O)O)CC1)C(=O)N[C@@H](CC(=O)O)C(=O)N[C@@H](Cc1ccccc1)C(N)=O [^177Lu-PP-F11, metal not drawn]
[2]
  percentage of intact radioligand present in the blood: 5.5%
[3]
  intact peptide in urine and blood: no intact peptide could be found

## CCCC[C@@H](C(=O)N[C@@H](CC(=O)O)C(=O)N[C@@H](Cc1cccc2ccccc12)C(N)=O)N(C)C(=O)[C@H](Cc1c[nH]c2ccccc12)NC(=O)CCNC(=O)CC(O)CNC(=O)CC(O)CNC(=O)CN1CCN(CC(=O)O)CCN(CC(=O)O)CCN(CC(=O)O)CC1 (single isomer, unassigned) [^177Lu-DOTA-MGSA, ^177Lu-DOTA-GABOB-GABOB-βAla-Trp-(NMe)Nle-Asp-1Nal-NH2, metal not drawn]
[4]
  tissue to tissue ratio at 4 h: 16.7 ± 2.7
[4]; kidney uptake
  tissue uptake at 4 h: 2 ± 0.3 %ID/g
[4]; [13]
  tissue uptake at 4 h: 32.1 ± 4.1 %ID/g
[5]
  tissue uptake at 1 h: 56.3 ± 9.1 %ID/g
  tissue uptake at 168 h: 1.2 ± 0.5 %ID/g
[6]
  accumulation of radioactivity in kidneys compared to ^177Lu-DOTA-MGS5: significantly lower

## CCCC[C@@H](C(=O)N[C@@H](CC(=O)O)C(=O)N[C@@H](Cc1cccc2ccccc12)C(N)=O)N(C)C(=O)[C@H](Cc1c[nH]c2ccccc12)NC(=O)CCNC(=O)CC[C@@H](NC(=O)CC[C@@H](NC(=O)CN1CCN(CC(=O)O)CCN(CC(=O)O)CCN(CC(=O)O)CC1)C(=O)O)C(=O)O [DOTA-MGSC, DOTA-γDGlu-γDGlu-βAla-Trp-(NMe)Nle-Asp-1Nal-NH2] ({DOTA-d(γGlu)-d(γGlu)-βAla}-W[NMeNle]D[1Nal]-NH2)
[1]
  IC50: 0.16 ± 0.01 nM

## CCCC[C@@H](C(=O)N[C@@H](CC(=O)O)C(=O)N[C@@H](Cc1cccc2ccccc12)C(N)=O)N(C)C(=O)[C@H](Cc1c[nH]c2ccccc12)NC(=O)CNC(=O)[C@H](Cc1ccc(O)cc1)NC(=O)[C@H](C)NC(=O)[C@@H](CCC(=O)O)NC(=O)CN1CCN(CC(=O)O)CCN(CC(=O)O)CCN(CC(=O)O)CC1 [^68Ga-DOTA-MGS5, metal not drawn]
[7]
  tissue to tissue ratio at 1 h: 4.1 ± 0.3
[8]
  kidney uptake: 5.71±1.38 % IA/g
  tumour uptake: 23.3±4.7 % IA/g

## CCCC[C@H](NC(=O)[C@H](Cc1c[nH]c2ccccc12)NC(=O)CNC(=O)[C@H](Cc1ccc(O)cc1)NC(=O)[C@H](C)NC(=O)[C@@H](CCC(=O)O)NC(=O)[C@@H](CCC(=O)O)NC(=O)[C@@H](CCC(=O)O)NC(=O)[C@@H](CCC(=O)O)NC(=O)[C@@H](CCC(=O)O)NC(=O)[C@@H](CCC(=O)O)NC(=O)CN1CCN(CC(=O)O)CCN(CC(=O)O)CCN(CC(=O)O)CC1)C(=O)N[C@@H](CC(=O)O)C(=O)N[C@@H](Cc1ccccc1)C(N)=O [^177Lu-PP-F11N, DOTA-DGlu-DGlu-DGlu-DGlu-DGlu-DGlu-Ala-Tyr-Gly-Trp-Nle-Asp-Phe-NH2, metal not drawn]
[2]
  percentage of intact radioligand present in the blood: 12.7%

## CCCC[C@@H](C(=O)N[C@@H](CC(=O)O)C(=O)N[C@@H](Cc1cccc2ccccc12)C(N)=O)N(C)C(=O)[C@H](Cc1c[nH]c2ccccc12)NC(=O)CCNC(=O)CC(O)CNC(=O)CC(O)CNC(=O)CN1CCN(CC(=O)O)CCN(CC(=O)O)CCN(CC(=O)O)CC1 (single isomer, unassigned) [^68Ga-DOTA-MGSA, ^68Ga-DOTA-GABOB-GABOB-βAla-Trp-(NMe)Nle-Asp-1Nal-NH2, metal not drawn]
[7]
  tissue to tissue ratio at 1 h: 11.2 ± 0.8
[7]; kidney uptake
  tissue uptake at 1 h: 2.4 ± 0.2 %ID/g
[7]; [13]
  tissue uptake at 1 h: 27 ± 0.2 %ID/g

## CCCC[C@@H](C(=O)N[C@@H](CC(=O)O)C(=O)N[C@@H](Cc1cccc2ccccc12)C(N)=O)N(C)C(=O)[C@H](Cc1c[nH]c2ccccc12)NC(=O)CNC(=O)[C@H](Cc1ccc(O)cc1)NC(=O)[C@@H]1CCCN1C(=O)[C@@H](CCC(=O)O)NC(=O)CN1CCN(CC(=O)O)CCN(CC(=O)O)CCN(CC(=O)O)CC1 [^177Lu-DOTA-MGS8, metal not drawn] ({DOTA}-[dE]PYGW[NMeNle]D[1Nal]-NH2; C-terminus assumed)
[9]
  tumour uptake in A431-CCK2R xenografts: 34.7±9.4 % IA/g
[2]
  percentage of intact radioligand present in the blood: 56.8%

## [1,4,7,10-tetraazacyclodocecan-1,4,7,10-tetraacetic acid^0,D-Glu^1,DesGlu^2-6]minigastrin [^111In-DOTA-MG11]
[10]
  biological half-life in vivo: below five minutes

## CCCC[C@@H](C(=O)N[C@@H](CC(=O)O)C(=O)N[C@@H](Cc1cccc2ccccc12)C(N)=O)N(C)C(=O)[C@H](Cc1c[nH]c2ccccc12)NC(=O)CNC(=O)[C@H](Cc1ccc(O)cc1)NC(=O)[C@H](C)NC(=O)[C@@H](CCC(=O)O)NC(=O)CN1CCN(CC(=O)O)CCN(CC(=O)O)CCN(CC(=O)O)CC1 [^177Lu-DOTA-MGS5, metal not drawn]
[11]
  uptake levels in the blood, comparison of the two peptidomimetics: somewhat lower uptake levels
[2]; 10 min p.i.
  percentage intact in the blood: 85.9%
[2]
  percentage of intact radioligand present in the blood: 77.0%
[12]; kidney, kidney uptake, ^177Lu-labelled, 4 h p.i.
  tissue uptake at 4 h: 3.5 ± 0.9 %ID/g
[12]; tumour and kidney
  tissue to tissue ratio at 4 h: 7 ± 2.2

## CCCC[C@@H](C(=O)N[C@@H](CC(=O)O)C(=O)N[C@@H](Cc1cccc2ccccc12)C(N)=O)N(C)C(=O)[C@H](Cc1c[nH]c2ccccc12)NC(=O)CCNC(=O)CC[C@@H](NC(=O)CC[C@@H](NC(=O)CN1CCN(CC(=O)O)CCN(CC(=O)O)CCN(CC(=O)O)CC1)C(=O)O)C(=O)O [^68Ga-DOTA-MGSC, ^68Ga-DOTA-γDGlu-γDGlu-βAla-Trp-(NMe)Nle-Asp-1Nal-NH2, metal not drawn] ({DOTA-d(γGlu)-d(γGlu)-βAla}-W[NMeNle]D[1Nal]-NH2)
[7]
  tissue to tissue ratio at 1 h: 14.5 ± 0.6
[7]; kidney uptake
  tissue uptake at 1 h: 2.5 ± 0.1 %ID/g
[7]; [13]
  tissue uptake at 1 h: 36 ± 1.4 %ID/g
